In patent US4087450A, “(Polychlorophenoxy) methyl esters of thiocyanic acid” (priority 1977, dated 1978):
≈ marks a conversion by molar mass, not a printed value.

Assays:
[1] = volatility determination, retention on glass fiber paper; type: physicochemical; conditions: 50° C. oven for 7 days, average of duplicate determinations
Experimental: (§1) To determine volatility and water solubility of the compounds, the following procedure was used: A 0.1 g. portion of each compound was dissolved in 2.0 ml. acetone. One-half of this solution was placed on a dry, pre-weighed, 7 cm. diameter sheet of glass fiber paper (Reeve Angel #934AH). The fiber paper was allowed to air dry for 24 hours and was re-weighed to determine the amount (0.05 g.) of the compound present. The other half of the solution was used to impregnate similarly another sheet of glass fiber paper. For the volatility determination, one of the papers was placed in a 50° C. oven for 7 days, removed, air cooled for 24 hours, and weighed. The percent retention given in Table II was calculated by the following formula: [formula]

mold growth [2] = assay: outdoor exposure test, preservation of alkyd paint (modified ASTM D-1006); set-up: key to mold growth rating, 8 Mo. / mold growth rating, 4 Mo. / mold growth rating, 5 Mo.: 1: No mold growth; 2: Trace, <5% growth; 3: Trace, 5-10% growth; 4: 10-25% growth; 25-50% growth; 6: 50-70% growth; 70-90% growth; 8: 90-95% growth; 9: 100% growth; 100% growth, severe; conditions: for mold growth rating, 4 Mo.: 4 months outdoor; for mold growth rating, 5 Mo.: 5 months outdoor; for mold growth rating, 8 Mo.: 8 months outdoor; for mold growth rating, 10 Mo.: 10 months outdoor
Description: (§2) Using a modification of ASTM D-1006, clear sapwood ponderosa pine boards 1/2 inch × 6 inches × 36 inches were primed with an unpreserved alkyd coating. A single coat of paint (alkyd or acrylic latex) incorporating compound (I) was brush applied. The boards were then exposed to the elements at Lake Jackson, Texas, and periodically readings were taken using the following rating scale: […]

Oysters = assay: marine antifoulant activity, fouling of test panels; conditions: Compound I 0.14 g. in panel, TBTO 0.13 g. in panel, seawater
Experimental: (§3) The compounds of this invention also repel or are toxic towards lower forms of marine life such as barnacles, and thereby function effectively as marine antifoulants. In evaluating marine antifoulant activity, a comparison of compound (I) vs. a standard antifouling toxicant, bis(tri-n-butyltin) oxide (TBTO), was carried out by treating pre-weighed 21/2 inch by 21/2 inch by 1/4 inch porous silica test panels with a solution of the individual compound in methyl isobutyl ketone, allowing the solvent to air dry to constant weight, and then immersing the panels in seawater at a subtropical location which has dense populations of fouling organisms. Under these conditions, an untreated panel became completely fouled after two months' exposure.

Barnacles = assay: as above; conditions: Compound I 0.14 g. in panel, TBTO 0.13 g. in panel, seawater
Experimental: as §3

Tube Worms = assay: as above; conditions: Compound I 0.14 g. in panel, TBTO 0.13 g. in panel, seawater
Experimental: as §3

Hydroids = assay: as above; conditions: Compound I 0.14 g. in panel, TBTO 0.13 g. in panel, seawater
Experimental: as §3

Microfouling = assay: as above; conditions: Compound I 0.14 g. in panel, TBTO 0.13 g. in panel, seawater
Experimental: as §3

Algae = assay: as above; conditions: Compound I 0.14 g. in panel, TBTO 0.13 g. in panel, seawater
Experimental: as §3

Algae Spores = assay: as above; conditions: Compound I 0.14 g. in panel, TBTO 0.13 g. in panel, seawater
Experimental: as §3

Tunicates = assay: as above; conditions: Compound I 0.14 g. in panel, TBTO 0.13 g. in panel, seawater
Experimental: as §3

Encrusting Bryozoans = assay: as above; conditions: Compound I 0.14 g. in panel, TBTO 0.13 g. in panel, seawater
Experimental: as §3

[3] = water-leachability determination, retention on glass fiber paper; type: physicochemical; conditions: leached 8 hours, 20° C. water at 10 ml./sec., average of duplicate determinations
Experimental: as §1
For the water-leachability determination, the second impregnated paper was leached for 8 hours with 20° C. water running at 10 ml./sec. The fiber paper was allowed to air dry for 24 hours, then re-weighed. The percent retention was also calculated by the above formula. The figures recorded in following Table II represent the average of duplicate determinations.

[4] = system: Trichophyton mentagrophytes; assay: conventional agar dilution test, 100% growth inhibition; type: cell-based; conditions: read-out: Concentration for 100% Growth Inhibition
Description: (§4) In representative operations, the compounds of the present invention when tested for their activity as antimicrobials using conventional agar dilution tests give complete growth inhibition against C. albicans, T. mentagrophytes, C. pelliculosa, R. nigricans, C. ips, C. fragans and Trichoderma sp. 42. The following Table provides test data summaries in comparison with the activity of art compounds.

Candida albicans = assay: as above; type: cell-based; conditions: read-out: Concentration for 100% Growth Inhibition
Description: as §4

Ceratocystis ips = assay: as above; type: cell-based; conditions: read-out: Concentration for 100% Growth Inhibition
Description: as §4

Candida pelliculosa = assay: as above; type: cell-based; conditions: Hansenula anomala, read-out: Concentration for 100% Growth Inhibition
Description: as §4

Pullularia pullulans = assay: as above; type: cell-based; conditions: read-out: Concentration for 100% Growth Inhibition
Description: as §4

Rhizopus nigricans = assay: as above; type: cell-based; conditions: Rhizopus stolonifer, read-out: Concentration for 100% Growth Inhibition
Description: as §4

Trichoderma species 42 = assay: as above; type: cell-based; conditions: Trichoderma species 42, agar dilution; read-out: Concentration for 100% Growth Inhibition
Description: as §4

mold growth [5] = assay: outdoor exposure test, preservation of acrylic latex paint (modified ASTM D-1006); set-up: key to mold growth rating, 4 Mo. / mold growth rating, 5 Mo. / mold growth rating, 8 Mo.: 1: No mold growth; 2: Trace, <5% growth; 3: Trace, 5-10% growth; 4: 10-25% growth; 25-50% growth; 6: 50-70% growth; 70-90% growth; 8: 90-95% growth; 9: 100% growth; 100% growth, severe; conditions: for mold growth rating, 4 Mo.: 4 months outdoor; for mold growth rating, 5 Mo.: 5 months outdoor; for mold growth rating, 8 Mo.: 8 months outdoor; for mold growth rating, 10 Mo.: 10 months outdoor
Description: as §2

important fungi = assay: fungicidal activity against important fungi; conditions: in words

N#CSCOc1cc(Cl)c(Cl)cc1Cl [Compound I, Thiocyanic Acid, (2,4,5-Trichlorophenoxy)Methyl Ester]
Percent Retention, Volatility [1]: 74% | mold growth rating, 4 Mo. (mold growth [2]; 0.4 wt. % (I)): 9 (100% growth) | mold growth rating, 5 Mo. (mold growth [2]; 0.4 wt. % (I)): 9 (100% growth) | mold growth rating, 8 Mo. (mold growth [2]; 0.4 wt. % (I)): 1 | mold growth rating, 10 Mo. (mold growth [2]; 0.4 wt. % (I)): 2 (Trace, <5% growth) | mold growth rating, 4 Mo. (mold growth [2]; 0.6 wt. % (I)): 8 (90-95% growth) | mold growth rating, 5 Mo. (mold growth [2]; 0.6 wt. % (I)): 9 (100% growth) | mold growth rating, 8 Mo. (mold growth [2]; 0.6 wt. % (I)): 1 | mold growth rating, 10 Mo. (mold growth [2]; 0.6 wt. % (I)): 2 (Trace, <5% growth) | mold growth rating, 4 Mo. (mold growth [2]; 0.8 wt. % (I)): 4 (10-25% growth) | mold growth rating, 5 Mo. (mold growth [2]; 0.8 wt. % (I)): 3 (Trace, 5-10% growth) | mold growth rating, 8 Mo. (mold growth [2]; 0.8 wt. % (I)): 1 | mold growth rating, 10 Mo. (mold growth [2]; 0.8 wt. % (I)): 2 (Trace, <5% growth) | mold growth rating, 4 Mo. (mold growth [2]; 1.0 wt. % (I)): 1 | mold growth rating, 5 Mo. (mold growth [2]; 1.0 wt. % (I)): 1 | mold growth rating, 8 Mo. (mold growth [2]; 1.0 wt. % (I)): 1 | mold growth rating, 10 Mo. (mold growth [2]; 1.0 wt. % (I)): 2 (Trace, <5% growth) | Percent Fouling of Test Panels (Oysters): 0% | Percent Fouling of Test Panels (Barnacles): 0% | Percent Fouling of Test Panels (Tube Worms): 0% | Percent Fouling of Test Panels (Hydroids): 0% | Percent Fouling of Test Panels (Microfouling): 0% | Percent Fouling of Test Panels (Algae): 0% | Percent Fouling of Test Panels (Algae Spores): 30% | Percent Fouling of Test Panels (Tunicates): 0% | Percent Fouling of Test Panels (Encrusting Bryozoans): 0% | Percent Retention, Water Extraction [3]: 92% | MIC [4]: 0.1 µg/mL (≈ 0.372 µM) | MIC (Candida albicans): 10 µg/mL (≈ 37.2 µM) | MIC (Ceratocystis ips): 1 µg/mL (≈ 3.72 µM) | MIC (Candida pelliculosa): 10 µg/mL (≈ 37.2 µM) | MIC (Pullularia pullulans): 10 µg/mL (≈ 37.2 µM) | MIC (Rhizopus nigricans): 10 µg/mL (≈ 37.2 µM) | MIC (Trichoderma species 42): 10 µg/mL (≈ 37.2 µM) | mold growth rating, 4 Mo. (mold growth [5]; 0.5 wt. % (I)): 1 | mold growth rating, 5 Mo. (mold growth [5]; 0.5 wt. % (I)): 1 | mold growth rating, 8 Mo. (mold growth [5]; 0.5 wt. % (I)): 1 | mold growth rating, 10 Mo. (mold growth [5]; 0.5 wt. % (I)): 2 (Trace, <5% growth) | mold growth rating, 4 Mo. (mold growth [5]; 1.0 wt. % (I)): 1 | mold growth rating, 5 Mo. (mold growth [5]; 1.0 wt. % (I)): 1 | mold growth rating, 8 Mo. (mold growth [5]; 1.0 wt. % (I)): 1 | mold growth rating, 10 Mo. (mold growth [5]; 1.0 wt. % (I)): 2 (Trace, <5% growth)

N#CSCOc1ccc(Cl)cc1Cl [Compound V]
Percent Retention, Volatility [1]: 6% | Percent Retention, Water Extraction [3]: 52% | MIC [4]: 1 µg/mL (≈ 4.27 µM) | MIC (Candida albicans): 100 µg/mL (≈ 427 µM) | MIC (Ceratocystis ips): 10 µg/mL (≈ 42.7 µM) | MIC (Candida pelliculosa): 10 µg/mL (≈ 42.7 µM) | MIC (Pullularia pullulans): 10 µg/mL (≈ 42.7 µM) | MIC (Rhizopus nigricans): 10 µg/mL (≈ 42.7 µM) | MIC (Trichoderma species 42): 10 µg/mL (≈ 42.7 µM)

N#CSCOc1c(Cl)cc(Cl)c(Cl)c1Cl [II, Thiocyanic Acid, (2,3,4,6-Tetrachlorophenoxy)Methyl Ester]
Percent Retention, Volatility [1]: 49% | Percent Retention, Water Extraction [3]: 96% | MIC [4]: 1 µg/mL (≈ 3.3 µM) | MIC (Candida albicans): 10 µg/mL (≈ 33 µM) | MIC (Ceratocystis ips): 1 µg/mL (≈ 3.3 µM) | MIC (Candida pelliculosa): 10 µg/mL (≈ 33 µM) | MIC (Pullularia pullulans): 1 µg/mL (≈ 3.3 µM) | MIC (Rhizopus nigricans): 100 µg/mL (≈ 330 µM) | MIC (Trichoderma species 42): 1 µg/mL (≈ 3.3 µM)

N#CSCOc1ccc(Cl)cc1 [III]
Percent Retention, Volatility [1]: 2% | Percent Retention, Water Extraction [3]: 80% | MIC [4]: 100 µg/mL (≈ 501 µM) | MIC (Candida albicans): 500 µg/mL (≈ 2500 µM) | MIC (Ceratocystis ips): 500 µg/mL (≈ 2500 µM) | MIC (Candida pelliculosa): 500 µg/mL (≈ 2500 µM) | MIC (Pullularia pullulans): 500 µg/mL (≈ 2500 µM) | MIC (Rhizopus nigricans): 500 µg/mL (≈ 2500 µM) | MIC (Trichoderma species 42): 100 µg/mL (≈ 501 µM)

Cc1cc(OCSC#N)ccc1Cl [IV]
Percent Retention, Volatility [1]: 12% | Percent Retention, Water Extraction [3]: 71% | MIC [4]: 100 µg/mL (≈ 468 µM) | MIC (Candida albicans): 500 µg/mL (≈ 2340 µM) | MIC (Ceratocystis ips): 500 µg/mL (≈ 2340 µM) | MIC (Candida pelliculosa): 500 µg/mL (≈ 2340 µM) | MIC (Pullularia pullulans): 500 µg/mL (≈ 2340 µM) | MIC (Rhizopus nigricans): 500 µg/mL (≈ 2340 µM) | MIC (Trichoderma species 42): 100 µg/mL (≈ 468 µM)

CCC[CH2][Sn]([CH2]CCC)([CH2]CCC)[O][Sn]([CH2]CCC)([CH2]CCC)[CH2]CCC [TBTO, bis(tri-n-butyltin) oxide, reference compound]
Percent Fouling of Test Panels (Oysters): 0% | Percent Fouling of Test Panels (Barnacles): 0% | Percent Fouling of Test Panels (Tube Worms): 0% | Percent Fouling of Test Panels (Hydroids): 0% | Percent Fouling of Test Panels (Microfouling): 0% | Percent Fouling of Test Panels (Algae): 0% | Percent Fouling of Test Panels (Algae Spores): 20% | Percent Fouling of Test Panels (Tunicates): 0% | Percent Fouling of Test Panels (Encrusting Bryozoans): 0%

N#CSCOc1c(Cl)c(Cl)c(Cl)c(Cl)c1Cl [VI]
Percent Retention, Volatility [1]: 97% | Percent Retention, Water Extraction [3]: 98% | MIC [4]: 100 µg/mL (≈ 296 µM) | MIC (Candida albicans): > 500 µg/mL | MIC (Ceratocystis ips): > 500 µg/mL | MIC (Candida pelliculosa): > 500 µg/mL | MIC (Pullularia pullulans): > 500 µg/mL | MIC (Rhizopus nigricans): > 500 µg/mL | MIC (Trichoderma species 42): > 500 µg/mL

N#CSCOc1c(Cl)c(Cl)c(Cl)c(Cl)c1Cl [pentachloro-(thiocyanatomethoxy)- benzene]
fungicidal activity against important fungi, relative to the compounds of this invention (important fungi): a small fraction of that of the compounds herein claimed
